Measurements reported in patent US12503475B2 (Centessa Pharmaceuticals (UK) Limited, priority 2020, dated 2025).

Target: T1, human orexin type 2 receptor (hOX2R) (Homo sapiens, UniProt O43614)
T1 construct: expressed in transfected cells
T1 sequence (O43614 1-444): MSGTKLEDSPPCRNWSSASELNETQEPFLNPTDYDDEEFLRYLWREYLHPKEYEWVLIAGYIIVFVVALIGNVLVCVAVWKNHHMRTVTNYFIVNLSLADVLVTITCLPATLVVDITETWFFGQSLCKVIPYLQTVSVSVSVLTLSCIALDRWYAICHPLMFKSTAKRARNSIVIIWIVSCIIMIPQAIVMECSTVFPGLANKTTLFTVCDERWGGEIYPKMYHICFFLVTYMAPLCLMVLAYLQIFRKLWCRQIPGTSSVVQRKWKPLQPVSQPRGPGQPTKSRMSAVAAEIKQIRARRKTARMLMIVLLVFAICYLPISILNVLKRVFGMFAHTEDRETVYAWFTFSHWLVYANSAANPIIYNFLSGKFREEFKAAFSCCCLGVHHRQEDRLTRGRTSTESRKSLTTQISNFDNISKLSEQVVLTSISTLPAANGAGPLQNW
Assay: Measurement of orexin type 2 receptor agonist activity (FLIPR calcium fluorescence)
Format: cell-based
Details: CHO cells expressing hOX2R, FLIPR calcium fluorescence; for EC50: read-out: hOx2 pEC50 (converted); for Emax: CHO, read-out: hOx2 Emax (%)
Protocol: The biological activity of the compounds of the present disclosure may be determined in cells stably expressing either orexin type 2 or orexin type 1 receptor. […] The agonist activity of a compound of the present disclosure may be determined by fluorescence value.
Stable cell line generation.
Measurement of orexin type 2 receptor agonist activity. […] As used herein, E. indicates the value at 10 μM concentration when orexin A is converted to a full agonist (maximum value of agonist activity. 100%).

Row | SMILES | EC50 | Emax
1 | C[C@H](F)C(=O)N1CC2(CC2)[C@H](NS(=O)(=O)CF)[C@@H]1Cc1cc(F)cc(-c2cccc(F)c2)c1F [Compound 393, 1-fluoro-N-((6S,7S)-5-((S)-2-fluoropropanoyl)-6-((2,3′,5-trifluoro-[1,1′-biphenyl]-3-yl)methyl)-5-azaspiro[2.4]heptan-7-yl)methanesulfonamide] | 1 to 10 nM | 90 to 100%
2 | O=C(NCC(F)(F)F)N1CC2(CC2)[C@H](NS(=O)(=O)C(F)F)[C@@H]1Cc1cc(F)cc(-c2ccccc2)c1F [Compound 383, (6S,7S)-6-((2,5-difluoro-[1,1′-biphenyl]-3-yl)methyl)-7-((difluoromethyl)sulfonamido)-N-(2,2,2-trifluoroethyl)-5-azaspiro[2.4]heptane-5-carboxamide] | 1 to 10 nM | 90 to 100%
3 | O=C(N1CC2(CC2)C(NS(=O)(=O)CF)C1Cc1cccc(-c2ccccc2)c1F)C1(O)CCC1 (racemic) [Compound 108, 1-fluoro-N-(6-((2-fluoro-[1,1′-biphenyl]-3-yl)methyl)-5-(1-hydroxycyclobutane-1-carbonyl)-5-azaspiro[2.4]heptan-7-yl)methanesulfonamide] | 0.0794 to 1 nM | 90 to 100%
4 | O=C([C@H]1CCO1)N1CC2(CC2)[C@H](NS(=O)(=O)CF)[C@@H]1Cc1cc(F)cc(-c2cc(F)cc(F)c2)c1F [Compound 227, 1-fluoro-N-((6S,7S)-5-((R)-oxetane-2-carbonyl)-6-((2,3′,5,5′-tetrafluoro-[1,1′-biphenyl]-3-yl)methyl)-5-azaspiro[2.4]heptan-7-yl)methanesulfonamide] | 1 to 10 nM | 90 to 100%
5 | O=C([C@@H](O)C(F)F)N1CC2(CC2)[C@H](NS(=O)(=O)C(F)F)[C@@H]1Cc1cccc(-c2ccccc2)c1F [Compound 198, N-((6S,7S)-5-((R)-3,3-difluoro-2-hydroxypropanoyl)-6-((2-fluoro-[1,1′-biphenyl]-3-yl)methyl)-5-azaspiro[2.4]heptan-7-yl)-1,1-difluoromethanesulfonamide] | 1 to 10 nM | 90 to 100%
6 | O=C(NCC(F)(F)F)N1CC2(CC2)[C@H](NS(=O)(=O)C(F)F)[C@@H]1Cc1cccc(-c2ccccc2)c1F [Compound 200, (6S,7S)-7-((difluoromethyl)sulfonamido)-6-((2-fluoro-[1,1′-biphenyl]-3-yl)methyl)-N-(2,2,2-trifluoroethyl)-5-azaspiro[2.4]heptane-5-carboxamide] | 1 to 10 nM | 90 to 100%
7 | CC(C)C(=O)N1CC2(CC2)[C@H](NS(C)(=O)=O)[C@@H]1Cc1cccc(-c2ccccc2F)c1 (racemic) [Compound 297] | 1 to 10 nM | 90 to 100%
8 | O=C([C@H]1CCO1)N1CC2(CC2)[C@H](NS(=O)(=O)/C=C/F)[C@@H]1Cc1cccc(-c2ccccc2)c1F [Compound 204, (E)-2-fluoro-N-((6S,7S)-6-((2-fluoro-[1,1′-biphenyl]-3-yl)methyl)-5-((R)-oxetane-2-carbonyl)-5-azaspiro[2.4]heptan-7-yl)ethene-1-sulfonamide] | 10 to 100 nM | 90 to 100%
9 | CCCNC(=O)N1CC2(CC2)[C@H](NS(C)(=O)=O)[C@@H]1Cc1cccc(-c2ccccc2)c1OC [Compound 342, (6S,7S)-6-((2-methoxy-[1,1′-biphenyl]-3-yl)methyl)-7-(methylsulfonamido)-N-propyl-5-azaspiro[2.4]heptane-5-carboxamide] | 10 to 100 nM | 70 to 80%
10 | [2H]C([2H])([2H])N(C(=O)N1CC2(CC2)[C@H](NS(C)(=O)=O)[C@@H]1Cc1cccc(-c2ccccc2)c1F)C([2H])([2H])[2H] [Compound 345, (6S,7S)-6-((2-fluoro-[1,1′-biphenyl]-3-yl)methyl)-N,N-bis(methyl-d3)-7-(methylsulfonamido)-5-azaspiro[2.4]heptane-5-carboxamide] | 1 to 10 nM | 90 to 100%
11 | CC(C)(O)C(=O)N1CC2(CC2)[C@H](NS(=O)(=O)CF)[C@@H]1Cc1cccc(-c2cccc(F)c2)c1F [Compound 177, N-((6S,7S)-6-((2,3′-difluoro-[1,1′-biphenyl]-3-yl)methyl)-5-(2-hydroxy-2-methylpropanoyl)-5-azaspiro[2.4]heptan-7-yl)-1-fluoromethanesulfonamide] | 1 to 10 nM | 90 to 100%
12 | O=C([C@H]1CCO1)N1CC2(CC2)[C@H](NS(=O)(=O)CF)[C@@H]1Cc1cccc(-c2cccc(F)c2)c1F [Compound 132, N-((6S,7S)-6-((2,3′-dfluoro-1,1′-biphenyl-3-yl)methyl)-5-((R)-oxetane-2-carbonyl)-5-azaspiro[2.4]heptan-7-yl)-1-fluoromethanesulfonamide] | 0.0794 to 1 nM | 90 to 100%
13 | CN(C)S(=O)(=O)N[C@@H]1[C@H](Cc2cccc(-c3ccccc3)c2)N(C(=O)[C@H]2CCO2)CC12CC2 [Compound 95, N-((6S,7S)-6-([1,1′-biphenyl]-3-ylmethyl)-5-((R)-oxetane-2-carbonyl)-5-azaspiro[2.4]heptan-7-yl)-N,N-dimethylsulfuric diamide] | 1 to 10 nM | 90 to 100%
14 | O=C(NC[C@@H]1CCO1)N1CC2(CC2)[C@H](NS(=O)(=O)C(F)F)[C@@H]1Cc1cccc(-c2ccccc2)c1F [Compound 368, (6S,7S)-7-((difluoromethyl)sulfonamido)-6-((2-fluoro-[1,1′-biphenyl]-3-yl)methyl)-N-(((S)-oxetan-2-yl)methyl)-5-azaspiro[2.4]heptane-5-carboxamide] | 1 to 10 nM | 90 to 100%
15 | CO[C@H](C)CNC(=O)N1CC2(CC2)[C@H](NS(C)(=O)=O)[C@@H]1Cc1cccc(-c2ccccc2)c1F [Compound 324, (6S,7S)-6-((2-fluoro-[1,1′-biphenyl]-3-yl)methyl)-N-((R)-2-methoxypropyl)-7-(methylsulfonamido)-5-azaspiro[2.4]heptane-5-carboxamide] | 10 to 100 nM | 90 to 100%
16 | [2H]C([2H])([2H])c1cccc(-c2cccc(C[C@H]3[C@@H](NS(=O)(=O)C(F)F)C4(CC4)CN3C(=O)[C@H]3CCO3)c2F)c1 [Compound 199, 1,1-difluoro-N-((6S,7S)-6-((2-fluoro-3′-(methyl-d3)-[1,1′-biphenyl]-3-yl)methyl)-5-((R)-oxetane-2-carbonyl)-5-azaspiro[2.4]heptan-7-yl)methanesulfonamide] | 0.0794 to 1 nM | 90 to 100%
17 | O=C([C@H]1CCO1)N1CC2(CC2)[C@H](NS(=O)(=O)CF)[C@@H]1Cc1cc(F)cc(-c2cccc(F)c2F)c1F [Compound 217, 1-fluoro-N-((6S,7S)-5-((R)-oxetane-2-carbonyl)-6-((2,2′,3′,5-tetrafluoro-[1,1′-biphenyl]-3-yl)methyl)-5-azaspiro[2.4]heptan-7-yl)methanesulfonamide] | 1 to 10 nM | 90 to 100%
18 | CC(C)(F)CNC(=O)N1CC2(CC2)[C@H](NS(=O)(=O)CF)[C@@H]1Cc1cccc(-c2ccccc2)c1F [Compound 410, (6S,7S)-N-(2-fluoro-2-methylpropyl)-6-((2-fluoro-[1,1′-biphenyl]-3-yl)methyl)-7-((fluoromethyl)sulfonamido)-5-azaspiro[2.4]heptane-5-carboxamide] | 1 to 10 nM | 90 to 100%
19 | O=C([C@H]1C[C@@H](F)C1)N1CC2(CC2)[C@H](NS(=O)(=O)CF)[C@@H]1Cc1cccc(-c2ccccc2)c1F [Compound 189] | 1 to 10 nM | 90 to 100%
